Results from ChEMBL document CHEMBL3045869, “Efficacy of fungicides with various modes of action in controlling the early stages of an Erysiphe necator-induced epidemic” (2010).
The source made the active and inactive calls. No cut-off for these calls is given here.

Tests used:
Erysiphe necator [1] = assay: Antifungal activity against Erysiphe necator biotype B assessed as disease severity at 0.625 g a.i./l applied 48 hr post-inoculation measured after 14 days by leaf-disk method relative to untreated-control; assay type: functional
Erysiphe necator [2] = assay: Antifungal activity against Erysiphe necator biotype B assessed as number of spores at 0.625 g a.i./l applied 4 days post-inoculation measured after 14 days during cycle 2 by leaf-disk method (reference value: 44.4 x 10^3 cm'-2); assay type: functional
Erysiphe necator [3] = assay: Antifungal activity against Erysiphe necator biotype B assessed as AUDPC at 0.625 g a.i./l applied 13 days post-inoculation measured after 14 days during cycle 2 by leaf-disk method (reference value: 654); assay type: functional
Erysiphe necator [4] = assay: Antifungal activity against Erysiphe necator biotype B assessed as AUDPC at 0.625 g a.i./l applied 48 hr post-inoculation measured after 14 days by leaf-disk method (reference value: 394); assay type: functional
Erysiphe necator [5] = assay: Antifungal activity against Erysiphe necator biotype B assessed as AUDPC at 0.625 g a.i./l applied 4 days post-inoculation measured after 14 days during cycle 1 by leaf-disk method (reference value: 695.6); assay type: functional
Erysiphe necator [6] = assay: Antifungal activity against Erysiphe necator biotype B assessed as disease severity at 0.625 g a.i./l applied 4 days post-inoculation measured after 14 days during cycle 1 by leaf-disk method relative to untreated-control; assay type: functional
Erysiphe necator [7] = assay: Antifungal activity against Erysiphe necator biotype B assessed as disease severity at 0.625 g a.i./l applied 4 days post-inoculation measured immediately during cycle 1 by leaf-disk method relative to untreated-control; assay type: functional
Erysiphe necator [8] = assay: Antifungal activity against Erysiphe necator biotype B assessed as number of spores at 0.625 g a.i./l applied 13 days post-inoculation measured after 14 days during cycle 2 by leaf-disk method (reference value: 47.6 x 10^3 cm'-2); assay type: functional
Erysiphe necator [9] = assay: Antifungal activity against Erysiphe necator biotype B assessed as disease severity at 0.625 g a.i./l applied 48 hr post-inoculation measured after 7 days by leaf-disk method relative to untreated-control; assay type: functional
Erysiphe necator [10] = assay: Antifungal activity against Erysiphe necator biotype B assessed as number of spores at 0.625 g a.i./l applied 4 days post-inoculation measured after 14 days during cycle 1 by leaf-disk method (reference value: 35.9 x 10^3 cm'-2); assay type: functional
Erysiphe necator [11] = assay: Antifungal activity against Erysiphe necator biotype B assessed as AUDPC at 0.625 g a.i./l applied 4 days post-inoculation measured after 14 days during cycle 2 by leaf-disk method (reference value: 844); assay type: functional
Erysiphe necator [12] = assay: Antifungal activity against Erysiphe necator biotype B assessed as number of spores at 0.625 g a.i./l applied 48 hr post-inoculation measured after 14 days by leaf-disk method (reference value: 43.5 x 10^3 cm'-2); assay type: functional
Erysiphe necator [13] = assay: Antifungal activity against Erysiphe necator biotype B assessed as number of spores at 0.5 g a.i./l applied 4 days post-inoculation measured after 14 days during cycle 2 by leaf-disk method (reference value: 44.4 x 10^3 cm'-2); assay type: functional
Erysiphe necator [14] = assay: Antifungal activity against Erysiphe necator biotype B assessed as reduction in disease severity at 0.5 g a.i./l applied 48 hr post-inoculation measured after 14 days by leaf-disk method relative to untreated-control; assay type: functional, organism-based
Erysiphe necator [15] = assay: Antifungal activity against Erysiphe necator biotype B assessed as number of spores at 0.5 g a.i./l applied 4 days post-inoculation measured after 14 days during cycle 1 by leaf-disk method (reference value: 35.9 x 10^3 cm'-2); assay type: functional
Erysiphe necator [16] = assay: Antifungal activity against Erysiphe necator biotype B assessed as disease severity at 0.5 g a.i./l applied 13 days post-inoculation measured after 14 days during cycle 2 by leaf-disk method relative to untreated-control; assay type: functional
Erysiphe necator [17] = assay: Antifungal activity against Erysiphe necator biotype B assessed as number of spores at 0.5 g a.i./l applied 48 hr post-inoculation measured after 14 days by leaf-disk method (reference value: 43.5 x 10^3 cm'-2); assay type: functional
Erysiphe necator [18] = assay: Antifungal activity against Erysiphe necator biotype B assessed as number of spores at 0.5 g a.i./l applied 13 days post-inoculation measured after 14 days during cycle 2 by leaf-disk method (reference value: 47.6 x 10^3 cm'-2); assay type: functional
Erysiphe necator [19] = assay: Antifungal activity against Erysiphe necator biotype B assessed as AUDPC at 0.5 g a.i./l applied 4 days post-inoculation measured after 14 days during cycle 2 by leaf-disk method (reference value: 844); assay type: functional
Erysiphe necator [20] = assay: Antifungal activity against Erysiphe necator biotype B assessed as disease severity at 0.5 g a.i./l applied 13 days post-inoculation measured after 6 days during cycle 2 by leaf-disk method relative to untreated-control; assay type: functional
Erysiphe necator [21] = assay: Antifungal activity against Erysiphe necator biotype B assessed as reduction in mycelial growth at 0.5 g a.i./l applied 4 days post-inoculation measured after 11 days during cycle 2 by leaf-disk method relative to untreated-control; assay type: functional, organism-based
Erysiphe necator [22] = assay: Antifungal activity against Erysiphe necator biotype B assessed as AUDPC at 0.5 g a.i./l applied 48 hr post-inoculation measured after 14 days by leaf-disk method (reference value: 394); assay type: functional
Erysiphe necator [23] = assay: Antifungal activity against Erysiphe necator biotype B assessed as AUDPC at 0.5 g a.i./l applied 13 days post-inoculation measured after 14 days during cycle 2 by leaf-disk method (reference value: 654); assay type: functional
Erysiphe necator [24] = assay: Antifungal activity against Erysiphe necator biotype B assessed as AUDPC at 0.5 g a.i./l applied 4 days post-inoculation measured after 14 days during cycle 1 by leaf-disk method (reference value: 695.6); assay type: functional
Erysiphe necator [25] = assay: Antifungal activity against Erysiphe necator biotype B assessed as reduction in disease severity at 0.5 g a.i./l applied 4 days post-inoculation measured after 11 days during cycle 2 by leaf-disk method relative to untreated-control; assay type: functional, organism-based
Erysiphe necator [26] = assay: Antifungal activity against Erysiphe necator biotype B assessed as disease severity at 0.5 g a.i./l applied 4 days post-inoculation measured after 14 days during cycle 1 by leaf-disk method relative to untreated-control; assay type: functional
Erysiphe necator [27] = assay: Antifungal activity against Erysiphe necator biotype B assessed as reduction in AUDPC at 0.5 g a.i./l applied 4 days post-inoculation measured after 11 days during cycle 2 by leaf-disk method relative to untreated-control; assay type: functional, organism-based
Erysiphe necator [28] = assay: Antifungal activity against Erysiphe necator biotype B assessed as reduction in sporulation at 0.5 g a.i./l applied 4 days post-inoculation measured after 11 days during cycle 2 by leaf-disk method relative to untreated-control; assay type: functional, organism-based
Erysiphe necator [29] = assay: Antifungal activity against Erysiphe necator biotype B assessed as disease severity at 0.5 g a.i./l applied 4 days post-inoculation measured immediately during cycle 1 by leaf-disk method relative to untreated-control; assay type: functional
Erysiphe necator [30] = assay: Antifungal activity against Erysiphe necator biotype B assessed as inhibition of mycelial growth at 1 g a.i./l applied 4 days post-inoculation measured on after 14 days during cycle 2 by leaf-disk method relative to untreated-control; assay type: functional, organism-based
Erysiphe necator [31] = assay: Antifungal activity against Erysiphe necator biotype B assessed as AUDPC at 1 g a.i./l applied 48 hr post-inoculation measured after 14 days by leaf-disk method (reference value: 394); assay type: functional
Erysiphe necator [32] = assay: Antifungal activity against Erysiphe necator biotype B assessed as disease severity at 1 g a.i./l applied 13 days post-inoculation measured after 14 days during cycle 2 by leaf-disk method relative to untreated-control; assay type: functional
Erysiphe necator [33] = assay: Antifungal activity against Erysiphe necator biotype B assessed as inhibition of mycelial growth at 1 g a.i./l applied 48 hr post-inoculation measured after 14 days by leaf-disk method; assay type: functional, organism-based
Erysiphe necator [34] = assay: Antifungal activity against Erysiphe necator biotype B assessed as inhibition of disease severity at 1 g a.i./l applied 48 hr post-inoculation measured after 14 days by leaf-disk method relative to control; assay type: functional; parameters: scale not given: the % may be the effect or the level left
Erysiphe necator [35] = assay: Antifungal activity against Erysiphe necator biotype B assessed as disease severity at 1 g a.i./l applied 4 days post-inoculation measured on day 13 during cycle 1 by leaf-disk method relative to untreated-control; assay type: functional
Erysiphe necator [36] = assay: Antifungal activity against Erysiphe necator biotype B assessed as disease severity at 1 g a.i./l applied 4 days post-inoculation measured immediately during cycle 1 by leaf-disk method relative to untreated-control; assay type: functional
Erysiphe necator [37] = assay: Antifungal activity against Erysiphe necator biotype B assessed as AUDPC at 1 g a.i./l applied 4 days post-inoculation measured after 14 days during cycle 2 by leaf-disk method (reference value: 844); assay type: functional
Erysiphe necator [38] = assay: Antifungal activity against Erysiphe necator biotype B assessed as number of spores at 1 g a.i./l applied 48 hr post-inoculation measured after 14 days by leaf-disk method (reference value: 43.5 x 10^3 cm'-2); assay type: functional
Erysiphe necator [39] = assay: Antifungal activity against Erysiphe necator biotype B assessed as disease severity at 1 g a.i./l applied 13 days post-inoculation measured after 6 days during cycle 2 by leaf-disk method relative to untreated-control; assay type: functional
Erysiphe necator [40] = assay: Antifungal activity against Erysiphe necator biotype B assessed as number of spores at 1 g a.i./l applied 4 days post-inoculation measured after 14 days during cycle 2 by leaf-disk method (reference value: 44.4 x 10^3 cm'-2); assay type: functional
Erysiphe necator [41] = assay: Antifungal activity against Erysiphe necator biotype B assessed as number of spores at 1 g a.i./l applied 13 days post-inoculation measured after 14 days during cycle 2 by leaf-disk method (reference value: 47.6 x 10^3 cm'-2); assay type: functional
Erysiphe necator [42] = assay: Antifungal activity against Erysiphe necator biotype B assessed as AUDPC at 1 g a.i./l applied 13 days post-inoculation measured after 14 days during cycle 2 by leaf-disk method (reference value: 654); assay type: functional
Erysiphe necator [43] = assay: Antifungal activity against Erysiphe necator biotype B assessed as number of spores at 1 g a.i./l applied 4 days post-inoculation measured after 14 days during cycle 1 by leaf-disk method (reference value: 35.9 x 10^3 cm'-2); assay type: functional
Erysiphe necator [44] = assay: Antifungal activity against Erysiphe necator biotype B assessed as reduction in mycelial growth at 1 g a.i./l applied 13 days post-inoculation measured after 14 days during cycle 2 by leaf-disk method relative to untreated-control; assay type: functional, organism-based
Erysiphe necator [45] = assay: Antifungal activity against Erysiphe necator biotype B assessed as AUDPC at 1 g a.i./l applied 4 days post-inoculation measured after 14 days during cycle 1 by leaf-disk method (reference value: 695.6); assay type: functional

CO/N=C(\C(=O)OC)c1ccccc1CO/N=C(\C)c1cccc(C(F)(F)F)c1
Activity (Erysiphe necator [1]): 31.8% | Activity (Erysiphe necator [2]): 0.06 ×10³ /cm2 | AUDPC (Erysiphe necator [3]): 6 | AUDPC (Erysiphe necator [4]): 86 | AUDPC (Erysiphe necator [5]): 459 | Activity (Erysiphe necator [6]): 60% | Activity (Erysiphe necator [7]): 24% | Activity (Erysiphe necator [8]): 1 ×10³ /cm2 | Activity (Erysiphe necator [9]): 3% | Activity (Erysiphe necator [10]): 0.2 ×10³ /cm2 | AUDPC (Erysiphe necator [11]): 0 | Activity (Erysiphe necator [12]): 2.1 ×10³ /cm2

Fc1ccc(Oc2ccnc3cc(Cl)cc(Cl)c23)cc1 [QUINOXYFEN]
Activity (Erysiphe necator [13]): 36.9 ×10³ /cm2 | Activity (Erysiphe necator [14]): Active | Activity (Erysiphe necator [15]): 10.7 ×10³ /cm2 | Activity (Erysiphe necator [16]): 89% | Activity (Erysiphe necator [17]): 27.3 ×10³ /cm2 | Activity (Erysiphe necator [18]): 23.2 ×10³ /cm2 | AUDPC (Erysiphe necator [19]): 6373 | Activity (Erysiphe necator [20]): 5% | Activity (Erysiphe necator [21]): inactive | AUDPC (Erysiphe necator [22]): 354 | AUDPC (Erysiphe necator [23]): 361 | AUDPC (Erysiphe necator [24]): 442 | Activity (Erysiphe necator [25]): inactive | Activity (Erysiphe necator [26]): 60% | Activity (Erysiphe necator [27]): Active | Activity (Erysiphe necator [28]): inactive | Activity (Erysiphe necator [29]): 24%

CC(C)(C)C(O)(CCc1ccc(Cl)cc1)Cn1cncn1 (stereo not given) [TEBUCONAZOLE]
inhibition (Erysiphe necator [30]): Active | AUDPC (Erysiphe necator [31]): 0 | Activity (Erysiphe necator [32]): 95% | inhibition (Erysiphe necator [33]): Active | Activity (Erysiphe necator [34]): 0% | Activity (Erysiphe necator [35]): 0% | Activity (Erysiphe necator [36]): 25% | AUDPC (Erysiphe necator [37]): 0 | Activity (Erysiphe necator [38]): 0.8 ×10³ /cm2 | Activity (Erysiphe necator [39]): 50% | Activity (Erysiphe necator [40]): 0.02 ×10³ /cm2 | Activity (Erysiphe necator [41]): 30.4 ×10³ /cm2 | AUDPC (Erysiphe necator [42]): 612 | Activity (Erysiphe necator [43]): 0.2 ×10³ /cm2 | Activity (Erysiphe necator [44]): inactive | AUDPC (Erysiphe necator [45]): 56.6
